Test results: patent US20240148821A1, “PHARMACEUTICAL USE OF CYCLIC PEPTIDE COMPOUND” (CHUGAI SEIYAKU KABUSHIKI KAISHA, priority 2021, published 2024)
Numbered stars: 1 amine (or outer) side, 2 acyl side, 3 side chain; on linkers, the order of the positions; unused ones are H or OH. Bridge positions count the residues as written; N and C are the ends. Square brackets hold non-standard residues; d marks the D form. Peptide text beside a SMILES is read from it. * marks the point of attachment. hPhe(3,5-F2-4-CF3) = N[C@@H](CCc1cc(F)c(C(F)(F)F)c(F)c1)C(=O)O; hPhe(3-Cl-4-CF3) = N[C@@H](CCc1ccc(C(F)(F)F)c(Cl)c1)C(=O)O; NMePhe(4-CF3) = CN[C@@H](Cc1ccc(C(F)(F)F)cc1)C(=O)O; hPhe(4-CF3) = N[C@@H](CCc1ccc(C(F)(F)F)cc1)C(=O)O; NEtPhe(4-Me) = CCN[C@@H](Cc1ccc(C)cc1)C(=O)O; NMePhe(4-Cl) = CN[C@@H](Cc1ccc(Cl)cc1)C(=O)O; NMePhe(4-Me) = CN[C@@H](Cc1ccc(C)cc1)C(=O)O; hPhe(4-Cl) = N[C@@H](CCc1ccc(Cl)cc1)C(=O)O; NMedβ3hAla = C[C@H](CC(=O)[*:2])N(C)[*:1]; NMeNva(5,5-F2) = CN[C@@H](CCC(F)F)C(=O)O; NMeGly(cPent) = CN[C@H](C(=O)O)C1CCCC1; Pro(4,4-F2) = O=C(O)[C@@H]1CC(F)(F)CN1; dβ3hPip = O=C(C[C@H]1CCCCN1[*:1])[*:2]; NMeCha = CN[C@@H](CC1CCCCC1)C(=O)O; Ala(cPr) = N[C@@H](CC1CC1)C(=O)O; Hyp = O=C(O)[C@@H]1C[C@@H](O)CN1; NEtLeu = CCN[C@@H](CC(C)C)C(=O)O; NMeChg = CN[C@H](C(=O)O)C1CCCCC1; NMeF = CN[C@@H](Cc1ccccc1)C(=O)O; NMeT = CN[C@H](C(=O)O)[C@@H](C)O; Gly(cPr) = N[C@H](C(=O)O)C1CC1; NMeD = CN[C@@H](CC(=O)O)C(=O)O; NMeL = CN[C@@H](CC(C)C)C(=O)O; NMeV = CN[C@H](C(=O)O)C(C)C; d(β3hA) = C[C@@H](N)CC(=O)O; NMeS = CN[C@@H](CO)C(=O)O; NMeA = CN[C@@H](C)C(=O)O; Piperidide = C1CCN(*)CC1; Ac5c = NC1(C(=O)O)CCCC1; Aze = O=C(O)[C@@H]1CCN1; Ac4c = NC1(C(=O)O)CCC1; Isopentyl = CC(C)CC*; Sar = CNCC(=O)O

biological target: protein-protein interaction between Kras and SOS1 (biotin-tagged human Kras loaded with GDP, His-tagged human SOS1) (Homo sapiens (Human), UniProt P01116, G12D); test: Protein-protein interaction inhibition between Kras and SOS1 (KrasG12D-SOS PPI) using AlphaScreen; assay type: biochemical; details: AlphaScreen; biotin-tagged human Kras loaded with GDP, His-tagged human SOS1; read-out: KRAS G12D-SOS PPI IC50;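 also: kras produced in E. coli, Ni-coupled donor beads and streptavidin acceptor beads, excitation 680 nm with emission detected at 520–620 nm via singlet oxygen transfer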

| SMILES | IC50 |
| --- | --- |
| CC[C@H](C)[C@@H]1NC(=O)[C@H](CC(C)C)N(C)C(=O)C[C@@H](C(=O)N2CCCCC2)N(C)C(=O)[C@H](C(C)C)N(C)C(=O)C2(CCCC2)NC(=O)[C@@H]2CCCN2C(=O)[C@H](CCc2ccc(C(F)(F)F)c(Cl)c2)NC(=O)CN(C)C(=O)[C@H](COCCC(C)C)N(C)C(=O)[C@@H]2CCN2C(=O)[C@H](C)N(C)C1=O [Compound 470] ([NMeL]I[NMeA][Aze][NMeS](Isopentyl)[Sar][hPhe(3-Cl-4-CF3)]P[Ac5c][NMeV][NMeD]-Piperidide; lactam N-11) | 2.2 nM |
| CC(C)C[C@H]1C(=O)N[C@@H](CC2CC2)C(=O)N(C)[C@@H](C)C(=O)N2CC[C@H]2C(=O)N(C)[C@@H](CC2CCCCC2)C(=O)N(C)CC(=O)N[C@@H](CCc2ccc(C(F)(F)F)c(Cl)c2)C(=O)N2CCC[C@H]2C(=O)NC2(CCCC2)C(=O)N(C)[C@@H](C(C)C)C(=O)N[C@H](C)CC(=O)N1C [Compound 474] (cyclo([Ac5c][NMeV][d(β3hA)][NMeL][Ala(cPr)][NMeA][Aze][NMeCha][Sar][hPhe(3-Cl-4-CF3)]P)) | 280 nM |
| CC[C@H](C)[C@@H]1NC(=O)[C@H](CC(C)C)N(C)C(=O)C[C@@H](C)N(C)C(=O)[C@H](C2CCCCC2)N(C)C(=O)C2(CCC2)NC(=O)[C@@H]2CC(F)(F)CN2C(=O)[C@H](CCc2cc(F)c(C(F)(F)F)c(F)c2)NC(=O)CN(C)C(=O)[C@H](Cc2ccc(C)cc2)N(CC)C(=O)[C@@H]2CCN2C(=O)[C@H](C)N(C)C1=O [Compound 475] (cyclo([Ac4c][NMeChg][NMedβ3hAla][NMeL]I[NMeA][Aze][NEtPhe(4-Me)][Sar][hPhe(3,5-F2-4-CF3)][Pro(4,4-F2)])) | 51 nM |
| CC[C@H](C)[C@@H]1NC(=O)[C@H](CC(C)C)N(C)C(=O)C[C@@H](C(=O)N2CCCCC2)N(C)C(=O)[C@H](C(C)C)N(C)C(=O)C2(CCCC2)NC(=O)[C@@H]2CCCN2C(=O)[C@H](CCc2ccc(C(F)(F)F)c(Cl)c2)NC(=O)CN(C)C(=O)[C@H](CC2CCCCC2)N(C)C(=O)[C@@H]2CCN2C(=O)[C@H](C)N(C)C1=O [Compound 476] ([NMeL]I[NMeA][Aze][NMeCha][Sar][hPhe(3-Cl-4-CF3)]P[Ac5c][NMeV][NMeD]-Piperidide; lactam N-11) | 4.1 nM |
| CCO[C@@H]1C[C@H]2C(=O)NC3(CCCC3)C(=O)N(C)[C@@H](C3CCCCC3)C(=O)N(C)[C@H](C)CC(=O)N(C)[C@@H](CC(C)C)C(=O)N[C@@H]([C@@H](C)CC)C(=O)N(C)[C@@H](C)C(=O)N3CC[C@H]3C(=O)N(C)[C@@H](Cc3ccc(C(F)(F)F)cc3)C(=O)N(C)CC(=O)N[C@@H](CCc3cc(F)c(C(F)(F)F)c(F)c3)C(=O)N2C1 [Compound 486] (cyclo([Ac5c][NMeChg][NMedβ3hAla][NMeL]I[NMeA][Aze][NMePhe(4-CF3)][Sar][hPhe(3,5-F2-4-CF3)][Hyp](Et))) | 4.8 nM |
| CC[C@H](C)[C@@H]1NC(=O)[C@H](CC(C)C)N(C)C(=O)C[C@@H](C)NC(=O)[C@H](C(C)C)N(C)C(=O)C2(CCCC2)NC(=O)[C@@H]2CCCN2C(=O)[C@H](CCc2ccc(C(F)(F)F)c(Cl)c2)NC(=O)CN(C)C(=O)[C@H](CC2CCCCC2)N(C)C(=O)[C@@H]2CCN2C(=O)[C@H](C)N(C)C1=O [Compound 488, (5S,8S,11S,15R,18S,23aS,29S,35S,37aS)-8-((S)-sec-butyl)-29-(3-chloro-4-(trifluoromethyl)phenethyl)-35-(cyclohexylmethyl)-11-isobutyl-18-isopropyl-5,6,12,15,19,33,36-heptamethyldocosahydro-2H,4H-spiro[azeto[2,1-u]pyrrolo[2,1-i][1,4,7,10,13,16,19,22,25,28,31]undecaazacyclotetratriacontine-21,1′-cyclopentan]-4,7,10,13,17,20,23,28,31,34,37(14H,22H)-undecaone] (cyclo([Ac5c][NMeV][d(β3hA)][NMeL]I[NMeA][Aze][NMeCha][Sar][hPhe(3-Cl-4-CF3)]P)) | 29 nM |
| CC(C)C[C@H]1C(=O)N[C@@H](C2CC2)C(=O)N(C)[C@@H](C)C(=O)N2CC[C@H]2C(=O)N(C)[C@@H](CC2CCCCC2)C(=O)N(C)CC(=O)N[C@@H](CCc2ccc(C(F)(F)F)c(Cl)c2)C(=O)N2CCC[C@H]2C(=O)NC2(CCCC2)C(=O)N(C)[C@@H](C(C)C)C(=O)N[C@H](C)CC(=O)N1C [Compound 490] (cyclo([Ac5c][NMeV][d(β3hA)][NMeL][Gly(cPr)][NMeA][Aze][NMeCha][Sar][hPhe(3-Cl-4-CF3)]P)) | 240 nM |
| CC[C@H](C)[C@@H]1NC(=O)[C@H](CC(C)C)N(C)C(=O)C[C@@H](C)N(C)C(=O)[C@H](C2CCCC2)N(C)C(=O)C2(CCCC2)NC(=O)[C@@H]2CCCN2C(=O)[C@H](CCc2ccc(C(F)(F)F)c(Cl)c2)NC(=O)CN(C)C(=O)[C@H](Cc2ccc(C)cc2)N(CC)C(=O)[C@@H]2CCN2C(=O)[C@H](C)N(C)C1=O [Compound 494] (cyclo([Ac5c][NMeGly(cPent)][NMedβ3hAla][NMeL]I[NMeA][Aze][NEtPhe(4-Me)][Sar][hPhe(3-Cl-4-CF3)]P)) | 8.6 nM |
| CC[C@H](C)[C@@H]1NC(=O)[C@H](CC(C)C)N(C)C(=O)C[C@@H](C(=O)N2CCCCC2)N(C)C(=O)[C@H](C(C)C)N(C)C(=O)C2(CCCC2)NC(=O)[C@@H]2CCCN2C(=O)[C@H](CCc2ccc(C(F)(F)F)c(Cl)c2)NC(=O)CN(C)C(=O)[C@H](CC2CCCCC2)N(C)C(=O)[C@@H]2CCN2C(=O)[C@H]([C@@H](C)O)N(C)C1=O [Compound 496] ([NMeL]I[NMeT][Aze][NMeCha][Sar][hPhe(3-Cl-4-CF3)]P[Ac5c][NMeV][NMeD]-Piperidide; lactam N-11) | 10 nM |
| CO[C@H](C)[C@@H]1NC(=O)[C@H](CC(C)C)N(C)C(=O)C[C@@H](C(=O)N2CCCCC2)N(C)C(=O)[C@H](C(C)C)N(C)C(=O)C2(CCCC2)NC(=O)[C@@H]2CCCN2C(=O)[C@H](CCc2ccc(C(F)(F)F)c(Cl)c2)NC(=O)CN(C)C(=O)[C@H](CC2CCCCC2)N(C)C(=O)[C@@H]2CCN2C(=O)[C@H](C)N(C)C1=O [Compound 497] ([NMeL]T(Me)[NMeA][Aze][NMeCha][Sar][hPhe(3-Cl-4-CF3)]P[Ac5c][NMeV][NMeD]-Piperidide; lactam N-11) | 4.3 nM |
| CC[C@H](C)[C@@H]1NC(=O)[C@H](CC(C)C)N(C)C(=O)C[C@@H](C)N(C)C(=O)[C@H](C2CCCCC2)N(C)C(=O)C2(CCC2)NC(=O)[C@@H]2CC(F)(F)CN2C(=O)[C@H](CCc2ccc(C(F)(F)F)c(Cl)c2)NC(=O)CN(C)C(=O)[C@H](Cc2ccc(C(F)(F)F)cc2)N(C)C(=O)[C@@H]2CCN2C(=O)[C@H](C)N(C)C1=O [Compound 505] (cyclo([Ac4c][NMeChg][NMedβ3hAla][NMeL]I[NMeA][Aze][NMePhe(4-CF3)][Sar][hPhe(3-Cl-4-CF3)][Pro(4,4-F2)])) | 86 nM |
| CCO[C@@H]1C[C@H]2C(=O)NC3(CCCC3)C(=O)N(C)[C@@H](C3CCCC3)C(=O)N(C)[C@H](C)CC(=O)N(C)[C@@H](CC(C)C)C(=O)N[C@@H]([C@@H](C)CC)C(=O)N(C)CC(=O)N(C)CC(=O)N(C)[C@@H](CC3CCCCC3)C(=O)N(C)CC(=O)N[C@@H](CCc3ccc(C(F)(F)F)c(Cl)c3)C(=O)N2C1 [Compound 510] (cyclo([Ac5c][NMeGly(cPent)][NMedβ3hAla][NMeL]I[Sar][Sar][NMeCha][Sar][hPhe(3-Cl-4-CF3)][Hyp](Et))) | 4 nM |
| CC[C@H](C)[C@@H]1NC(=O)[C@H](C)N(C)C(=O)C[C@H]2CCCCN2C(=O)[C@H](C(C)C)N(C)C(=O)[C@H](Cc2ccccc2)N(C)C(=O)[C@H](CC(C)C)N(C)C(=O)[C@H](CCc2ccc(C(F)(F)F)cc2)NC(=O)CN(C)C(=O)[C@H](Cc2ccc(Cl)cc2)N(C)C(=O)CN(C)C(=O)CN(C)C1=O [Compound 512] (cyclo(I[Sar][Sar][NMePhe(4-Cl)][Sar][hPhe(4-CF3)][NMeL][NMeF][NMeV][dβ3hPip][NMeA])) | 150 nM |
| CC[C@H](C)[C@@H]1NC(=O)[C@H](CC(C)C)N(C)C(=O)C[C@@H](C(=O)N2CCCCC2)N(C)C(=O)[C@H](C2CCCCC2)N(C)C(=O)C2(CCCC2)NC(=O)[C@H](CCC(F)F)N(C)C(=O)[C@H](CCc2ccc(C(F)(F)F)c(Cl)c2)NC(=O)CN(C)C(=O)[C@H](CC2CCCCC2)N(C)C(=O)CN(C)C(=O)CN(C)C1=O [Compound 523] ([NMeL]I[Sar][Sar][NMeCha][Sar][hPhe(3-Cl-4-CF3)][NMeNva(5,5-F2)][Ac5c][NMeChg][NMeD]-Piperidide; lactam N-11) | 5.8 nM |
| CC[C@H](C)[C@@H]1NC(=O)[C@H](CC(C)C)N(C)C(=O)C[C@@H](C(=O)N2CCCCC2)N(C)C(=O)[C@H](C(C)C)N(C)C(=O)C2(CCCC2)NC(=O)[C@@H]2CCCN2C(=O)[C@H](CCc2ccc(Cl)cc2)NC(=O)CN(C)C(=O)[C@H](CC2CCCCC2)N(C)C(=O)CN(C)C(=O)[C@@H]2CCCN2C1=O [Compound 530] ([NMeL]IP[Sar][NMeCha][Sar][hPhe(4-Cl)]P[Ac5c][NMeV][NMeD]-Piperidide; lactam N-11) | 140 nM |
| CC[C@H](C)[C@@H]1NC(=O)[C@H](CC(C)C)N(CC)C(=O)C[C@@H](C)NC(=O)[C@H](C2CCCC2)N(C)C(=O)C2(CCCC2)NC(=O)[C@@H]2CCCN2C(=O)[C@H](CCc2ccc(C(F)(F)F)c(Cl)c2)NC(=O)CN(C)C(=O)[C@H](Cc2ccc(C)cc2)N(C)C(=O)[C@@H]2CCN2C(=O)[C@H](C)N(C)C1=O [Compound 531] (cyclo([Ac5c][NMeGly(cPent)][d(β3hA)][NEtLeu]I[NMeA][Aze][NMePhe(4-Me)][Sar][hPhe(3-Cl-4-CF3)]P)) | 1.6 nM |
| CCO[C@@H]1C[C@H]2C(=O)NC3(CCCC3)C(=O)N(C)[C@@H](C3CCCC3)C(=O)N(C)[C@H](C)CC(=O)N(C)[C@@H](CC(C)C)C(=O)N[C@@H]([C@@H](C)CC)C(=O)N(C)CC(=O)N(C)CC(=O)N(C)[C@@H](Cc3ccc(C(F)(F)F)cc3)C(=O)N(C)CC(=O)N[C@@H](CCc3ccc(C(F)(F)F)c(Cl)c3)C(=O)N2C1 [Compound 541] (cyclo([Ac5c][NMeGly(cPent)][NMedβ3hAla][NMeL]I[Sar][Sar][NMePhe(4-CF3)][Sar][hPhe(3-Cl-4-CF3)][Hyp](Et))) | 4.3 nM |
